Results as given in patent US8168221B2, “Composition 064” (AstraZeneca AB, priority 2007, dated 2012).

What was measured:
[1] = Compound (I) forced degradation study, solutions exposed to light at room temperature; format: physicochemical
Description: (§1) The Compound (I), Compound (I) formyl hydrazide, and total impurities contents were determined using High Performance Liquid Chromatography HPLC. 10 μL sample was injected into a mobile phase comprising water/acetonitrile/formic acid in the ratios 900:100:2 (Eluent A)/400:600:2 (Eluent B), as defined by the gradient program in Table 1 below. Separation of impurities was performed using a column 15 cm long×4.6 mm internal diameter packed with Waters Symmetry C8 stationary phase having 3.5 μm particle size. […] “ND” in Tables 2 and 3 refers to “not determined”

[2] = Compound (I) forced degradation study, aqueous buffer solutions protected from light; format: physicochemical; settings: for Compound (I) formyl hydrazide, % w/w (24 hours) / Compound (I) hydrazide, % w/w (24 hours) / Compound (I), % w/w (24 hours) / Compound (I), % w/w (initial) / Compound (I) formyl hydrazide, % w/w (initial): protected from light; for Compound (I), % w/w (initial): 0.5 mg/mL
Description: as §1

SMILES: COc1nc(C)cnc1NS(=O)(=O)c1cccnc1-c1ccc(-c2nnco2)cc1 [Compound (I), N-(3-methoxy-5-methylpyrazin-2-yl)-2-(4-[1,3,4-oxadiazol-2-yl]phenyl)pyridine-3-sulphonamide]
- Compound (I) formyl hydrazide, % w/w (24 hours) ([1]; pH 1.2, 24 hours): 16.35 % w/w
- Compound (I) hydrazide, % w/w (24 hours) ([1]; pH 1.2, 24 hours): ND/0.32 % w/w
- Compound (I), % w/w (24 hours) ([1]; pH 1.2, 24 hours): 82.33 % w/w
- Compound (I) formyl hydrazide, % w/w (initial) ([1]; pH 1.2, initial): 1.39 % w/w
- Compound (I), % w/w (initial) ([1]; pH 1.2, initial): 98.82 % w/w
- Compound (I) formyl hydrazide, % w/w (24 hours) ([1]; pH 3.0, 24 hours): 0.30 % w/w
- Compound (I), % w/w (24 hours) ([1]; pH 3.0, 24 hours): 95.76 % w/w
- Compound (I) formyl hydrazide, % w/w (initial) ([1]; pH 3.0, initial): 0.05 % w/w
- Compound (I), % w/w (initial) ([1]; pH 3.0, initial): 99.39 % w/w
- Compound (I), % w/w (24 hours) ([1]; pH 7.2, 24 hours): 97.04 % w/w
- Compound (I), % w/w (initial) ([1]; pH 7.2, initial): 98.78 % w/w
- Compound (I) formyl hydrazide, % w/w (24 hours) ([1]; pH 11.0, 24 hours): 0.15 % w/w
- Compound (I), % w/w (24 hours) ([1]; pH 11.0, 24 hours): 98.66 % w/w
- Compound (I) formyl hydrazide, % w/w (initial) ([1]; pH 11.0, initial): < 0.05 % w/w
- Compound (I), % w/w (initial) ([1]; pH 11.0, initial): 99.91 % w/w
- hydrolytic degradation (in words) ([2]; low and high pH): subject to hydrolytic degradation at low and high pH
- Compound (I) formyl hydrazide, % w/w (24 hours) ([2]; pH 1.2, 37° C.): 32.16 % w/w
- Compound (I) hydrazide, % w/w (24 hours) ([2]; pH 1.2, 37° C.): 47.34 % w/w
- Compound (I), % w/w (24 hours) ([2]; pH 1.2, 37° C.): 0.89 % w/w
- Compound (I), % w/w (initial) ([2]; pH 1.2, 37° C.): 96.69/ % w/w
- Compound (I) formyl hydrazide, % w/w (initial) ([2]; pH 1.2, 37° C.): 1.58/ % w/w
- Compound (I) formyl hydrazide, % w/w (24 hours) ([2]; pH 1.2, RT): 59.83 % w/w
- Compound (I) hydrazide, % w/w (24 hours) ([2]; pH 1.2, RT): 13.87 % w/w
- Compound (I), % w/w (24 hours) ([2]; pH 1.2, RT): 23.04 % w/w
- Compound (I), % w/w (initial) ([2]; pH 1.2, RT): 97.57/ % w/w
- Compound (I) formyl hydrazide, % w/w (initial) ([2]; pH 1.2, RT): 1.99/ % w/w
- Compound (I) formyl hydrazide, % w/w (24 hours) ([2]; pH 3.0, 37° C.): 3.09 % w/w
- Compound (I), % w/w (24 hours) ([2]; pH 3.0, 37° C.): 96.56 % w/w
- Compound (I), % w/w (initial) ([2]; pH 3.0, 37° C.): 99.43/ % w/w
- Compound (I) formyl hydrazide, % w/w (24 hours) ([2]; pH 3.0, RT): 1.66 % w/w
- Compound (I) hydrazide, % w/w (24 hours) ([2]; pH 3.0, RT): <0.05 % w/w
- Compound (I), % w/w (24 hours) ([2]; pH 3.0, RT): 84.70 % w/w
- Compound (I), % w/w (initial) ([2]; pH 3.0, RT): 99.45/ % w/w
- Compound (I) hydrazide, % w/w (24 hours) ([2]; pH 7.2, 37° C.): <0.05 % w/w
- Compound (I), % w/w (24 hours) ([2]; pH 7.2, 37° C.): 99.17 % w/w
- Compound (I), % w/w (initial) ([2]; pH 7.2, 37° C.): 98.73/ % w/w
- Compound (I) hydrazide, % w/w (24 hours) ([2]; pH 7.2, RT): <0.05 % w/w
- Compound (I), % w/w (24 hours) ([2]; pH 7.2, RT): 99.45 % w/w
- Compound (I), % w/w (initial) ([2]; pH 7.2, RT): 99.14/ % w/w
- Compound (I) formyl hydrazide, % w/w (24 hours) ([2]; pH 11.0, 37° C.): 4.16 % w/w
- Compound (I) hydrazide, % w/w (24 hours) ([2]; pH 11.0, 37° C.): <0.05 % w/w
- Compound (I), % w/w (24 hours) ([2]; pH 11.0, 37° C.): 94.50 % w/w
- Compound (I), % w/w (initial) ([2]; pH 11.0, 37° C.): 99.17/ % w/w
- Compound (I) formyl hydrazide, % w/w (24 hours) ([2]; pH 11.0, RT): 1.35 % w/w
- Compound (I), % w/w (24 hours) ([2]; pH 11.0, RT): 94.21 % w/w
- Compound (I), % w/w (initial) ([2]; pH 11.0, RT): 98.68/ % w/w
- Compound (I) formyl hydrazide, % w/w (initial) ([2]; pH 11.0, RT): 0.07/ % w/w
